Target: CB1 receptor (Homo sapiens, UniProt P21554)
Experiment: CB1 cAMP Antagonist Assay (LANCE Ultra cAMP kit)
Assay type: cell-based
Conditions: Flp-In CHO cells stably expressing the CB1 receptor; forskolin and CP55940 agonist at EC90; cAMP FRET readout
Excerpt: CB1 cAMP Antagonist Assay
LANCE Ultra cAMP kit (Perkin Elmer) was used to quantitate the amount of 3′,5′-cyclic adenosine monophosphate (cAMP) produced in Flp-In CHO (Invitrogen) cells stably expressing the CB1 receptor.
Forskolin was initially titrated to determine the response of the cells. The EC90 of forskolin was used for compound testing. CP55940 was titrated and used with EC90 of forskolin to determine the level of agonist stimulation. EC90 of the agonist was used for subsequent compound testing.
Forskolin (Sigma), CP55940 (Cayman Chemicals), and AM251 (MCE) were diluted in 100% DMSO, starting at 100 mM, 1 mM, and 1 mM respectively, in 3-fold serial dilutions. Test compounds were diluted in 100% DMSO starting from 10 mM, 3-fold dilutions. The cAMP assay buffer contains 1x Hank’s Buffered Saline Solution with Ca^2+ and Mg^2+ (Invitrogen), 5.3 mM HEPES (Invitrogen), 0.05% BSA, 0.5 mM IBMX (Sigma).
For all assays, cells were harvested, counted, and diluted in cAMP assay buffer to 1× 10^5 cells/mL. Only cells with viability >85% were used for the assay. Cells were seeded at 1000 cells/well in 384-well plates and 10 nL/well AM251 or test compound was added and incubated at 37° C. for 10 min. […] To detect the amount of cAMP produced, 5 µL of a 100x diluted stock of Eu-cAMP tracer and 5 µL of 200x diluted stock of Ulight-anti-cAMP were added to each well, and the plate incubated at 25° C. for 15 min. The FRET signal was read using an EnVision microplate reader (λex=320 nm, λem=615 nm and 665 nm).
The IC50 is determined by fitting the percentage of inhibition as a function of compound concentrations with the Hill equation, using a 4-parameter fit in either XLfit or GraphPad Prism.

Chain of CB1 receptor (P21554 whole entry): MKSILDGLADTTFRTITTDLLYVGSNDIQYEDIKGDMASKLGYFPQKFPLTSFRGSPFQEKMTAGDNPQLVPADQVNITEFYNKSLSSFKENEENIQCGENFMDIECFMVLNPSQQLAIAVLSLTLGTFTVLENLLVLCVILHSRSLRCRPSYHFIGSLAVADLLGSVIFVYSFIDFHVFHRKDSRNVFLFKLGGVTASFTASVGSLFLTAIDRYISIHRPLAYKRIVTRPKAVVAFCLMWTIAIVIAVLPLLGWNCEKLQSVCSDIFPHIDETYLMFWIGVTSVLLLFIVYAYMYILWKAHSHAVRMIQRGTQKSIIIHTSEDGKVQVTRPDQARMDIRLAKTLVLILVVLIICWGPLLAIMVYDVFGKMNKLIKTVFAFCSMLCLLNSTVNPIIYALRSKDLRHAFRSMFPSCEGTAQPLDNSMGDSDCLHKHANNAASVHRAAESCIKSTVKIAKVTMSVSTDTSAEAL

SMILES | IC50
Cn1c(N2C[C@H](c3ccccc3)C(c3ccc(Cl)cc3)=N2)n[nH]c1=O [Compound 172, 5-[(4S)-3-(4-chlorophenyl)-4-phenyl-4,5-dihydropyrazol-1-yl]-4-methyl-2H-1,2,4-triazol-3-one] | 1000 to 5000 nM
C[C@@H](C(N)=O)n1c(N2C[C@@H](c3ccccc3)C(c3ccc(Cl)cc3)=N2)nn(Cc2ccc(CN3CCOCC3)cc2)c1=O [Compound 159] | 1000 to 5000 nM
Cn1c(N2CC(c3ccccc3)C(c3ccc(Cl)cc3)=N2)nn(Cc2ccc(C(N)=O)cc2)c1=O (centres unmarked) [Compound 192, 4-([3-[3-(4-chlorophenyl)-4-phenyl-4,5-dihydropyrazol-1-yl]-4-methyl-5-oxo-1,2,4-triazol-1-yl]methyl)benzamide] | 100 to 1000 nM
Cn1c(N2CC(c3ccccc3)C(c3ccc(Cl)cc3)=N2)nn(Cc2ccccc2Cl)c1=O (centres unmarked) [Compound 171] | < 100 nM
CCOC(=O)Cn1c(N2C[C@H](c3ccccc3)C(c3ccc(Cl)cc3)=N2)nn(-c2ccc(Cl)cc2)c1=O [Compound 104, ethyl 2-[1-(4-chlorophenyl)-3-[(4S)-3-(4-chlorophenyl)-4-phenyl-4,5-dihydro-1H-pyrazol-1-yl]-5-oxo-4,5-dihydro-1H-1 ,2,4-triazol-4-yl]acetate] | < 100 nM
Cn1c(N2CC(c3ccccc3)C(c3ccc(Cl)cc3)=N2)nn(Cc2ccc(C(=O)NCCO)cc2)c1=O (centres unmarked) [Compound 173] | 1000 to 5000 nM
O=c1n(-c2ccc(Cl)cc2)nc(N2C[C@]3(CCc4ccccc43)C(c3ccc(Cl)cc3)=N2)n1CCO [Compound 114, 1-(4-chlorophenyl)-3-[(1R)-3-(4-chlorophenyl)-1,2,3,5-tetrahydrospiro[indene-1,4-pyrazol]-1-yl]-4-(2-hydroxyethyl)-4,5-dihydro-1H-1,2,4-triazol-5-one] | 100 to 1000 nM
Cn1c(N2C[C@@H](c3ccccc3)C(c3ccc(Cl)cc3)=N2)nn(CCc2ccc(C(N)=O)cc2)c1=O [Compound 212] | > 5000 nM
O=C(O)CCn1c(N2C[C@]3(CCc4ccccc43)C(c3ccc(Cl)cc3)=N2)nn(Cc2ccc(Cl)cc2)c1=O [Compound 127] | > 5000 nM
C[C@H](C(N)=O)n1c(N2C[C@@H](c3ccccc3)C(c3ccc(Cl)cc3)=N2)nn(Cc2ccc(CN3CCOCC3)cc2)c1=O [Compound 164] | > 5000 nM
NC(=O)CCn1c(N2C[C@@]3(CCc4ccccc43)C(c3ccc(Cl)cc3)=N2)nn(-c2ccc(Cl)cc2)c1=O [Compound 128] | > 5000 nM
Cn1nc(N2C[C@]3(CCc4ccccc43)C(c3ccc(Cl)cc3)=N2)n(C)c1=O [Compound 138] | > 5000 nM
Cn1c(N2C[C@]3(CCc4ccccc43)C(c3ccc(Cl)cc3)=N2)nn(-c2ccc(Cl)cc2)c1=O [Compound 109] | > 5000 nM
Cn1c(N2CC(c3ccccc3)C(c3ccc(Cl)cc3)=N2)nn(CCc2ccc(C(=O)O)cc2)c1=O (centres unmarked) [Compound 195] | > 5000 nM
NC(=O)Cn1c(N2C[C@H](c3ccccc3)C(c3ccc(Cl)cc3)=N2)nn(Cc2ccc(Cl)cc2)c1=O [Compound 107, 2-[3-[(4S)-3-(4-chlorophenyl)-4-phenyl-4,5-dihydro-1H-pyrazol-1-yl]-1-[(4-chlorophenyl)methyl]-5-oxo-4,5-dihydro-1H-1,2,4-triazol-4-yl]acetamide] | < 100 nM
C[C@@H](c1ccc(Cl)cc1)n1nc(N2CC(c3ccccc3)C(c3ccc(Cl)cc3)=N2)n(CC(N)=O)c1=O (stereo in doubt) [Compound 150, 2-[3-[(4S)-3-(4-chlorophenyl)-4-phenyl-4,5-dihydropyrazol-1-yl]-1-[(1S)-1-(4-chlorophenyl)ethyl]-5-oxo-1,2,4-triazol-4-yl]acetamide] | 100 to 1000 nM
C[C@@H](C(N)=O)n1c(N2C[C@H](c3ccccc3)C(c3ccc(Cl)cc3)=N2)n[nH]c1=O [Compound 203, (2S)-2-[3-[(4S)-3-(4-chlorophenyl)-4-phenyl-4,5-dihydropyrazol-1-yl]-5-oxo-1H-1,2,4-triazol-4-yl]propanamide] | > 5000 nM
Cn1c(N2C[C@@H](c3ccccc3)C(c3ccc(Cl)cc3)=N2)nn(Cc2ccc(CN3CCOCC3)cc2)c1=O [Compound 134] | 1000 to 5000 nM
Cn1c(N2C[C@H](c3ccccc3)C(c3ccc(Cl)cc3)=N2)nn(Cc2ccccc2)c1=O [Compound 169] | < 100 nM

SMILES | IC50
Cc1cc(Cn2nc(N3CC(c4ccccc4)C(c4ccc(Cl)cc4)=N3)n(C)c2=O)ccc1Cl (centres unmarked) [Compound 178] | < 100 nM
NC(=O)Cn1c(N2C[C@]3(CCc4ccccc43)C(c3ccc(Cl)cc3)=N2)nn(Cc2ccc(Cl)cc2)c1=O [Compound 122, 2-[3-[(1R)-3-(4-chlorophenyl)-1,2,3,5-tetrahydrospiro[indene-1,4-pyrazol]-1-yl]-1-[(4-chlorophenyl)methyl]-5-oxo-4,5-dihydro-1H-1,2,4-triazol-4-yl]acetamide] | 100 to 1000 nM
C[C@H](C(=O)NCCO)n1c(N2C[C@H](c3ccccc3)C(c3ccc(Cl)cc3)=N2)nn(Cc2ccc(Cl)cc2)c1=O [Compound 190, (2R)-2-[3-[(4S)-3-(4-chlorophenyl)-4-phenyl-4,5-dihydropyrazol-1-yl]-1-[(4-chlorophenyl)methyl]-5-oxo-1,2,4-triazol-4-yl]-N-(2-hydroxyethyl)propanamide] | < 100 nM
Cn1c(N2C[C@H](c3ccccc3)C(c3ccc(Cl)cc3)=N2)nn(-c2ccc(CN3CCOCC3)cc2)c1=O [Compound 144, 3-[(4S)(4-Chlorophenyl)-4-Phenyl-4,5-Dihydro-1H-Pyrazol-1-yl]-4-Methyl-1-[4-[(Morpholin-4-yl)Methyl] Phenyl]-4,5-Dihydro-1H-1,2,4-Triazol-5-One] | 100 to 1000 nM
Cn1c(N2CC(c3ccccc3)C(c3ccc(Cl)cc3)=N2)nn(Cc2ccc(C#N)cc2)c1=O (centres unmarked) [Compound 160] | < 100 nM
C[C@H](c1ccc(Cl)cc1)n1nc(N2C[C@H](c3ccccc3)C(c3ccc(Cl)cc3)=N2)n(CC(N)=O)c1=O [Compound 154] | < 100 nM
Cn1c(N2C[C@@H](c3ccccc3)C(c3ccc(Cl)cc3)=N2)nn(-c2ccc(Cl)cc2)c1=O [Compound 100] | > 5000 nM
Cn1c(N2C[C@@H](c3ccccc3)C(c3ccc(Cl)cc3)=N2)nn(Cc2ccccc2)c1=O [Compound 166] | 100 to 1000 nM
C[C@H](C(=O)NCCO)n1c(N2C[C@@H](c3ccccc3)C(c3ccc(Cl)cc3)=N2)nn(Cc2ccc(Cl)cc2)c1=O [Compound 191, (2R)-2-[3-[(4R)-3-(4-chlorophenyl)-4-phenyl-4,5-dihydropyrazol-1-yl]-1-[(4-chlorophenyl)methyl]-5-oxo-1,2,4-triazol-4-yl]-N-(2-hydroxyethyl)propanamide] | 100 to 1000 nM
COC(=O)c1cccc(Cn2nc(N3CC(c4ccccc4)C(c4ccc(Cl)cc4)=N3)n(C)c2=O)c1 (centres unmarked) [Compound 189] | 100 to 1000 nM
Cn1c(N2C[C@H](c3ccccc3)C(c3ccc(Cl)cc3)=N2)nn(CCc2ccc(C(=O)NCCO)cc2)c1=O [Compound 200] | 100 to 1000 nM
O=c1[nH]nc(N2C[C@H](c3ccccc3)C(c3ccc(Cl)cc3)=N2)[nH]1 [Compound 211, 5-[(4S)-3-(4-chlorophenyl)-4-phenyl-4,5-dihydropyrazol-1-yl]-2,4-dihydro-1,2,4-triazol-3-one] | > 5000 nM
C[C@H](C(N)=O)n1c(N2C[C@H](c3ccccc3)C(c3ccc(Cl)cc3)=N2)nn(Cc2ccc(Cl)cc2)c1=O [Compound 174] | < 100 nM
NC(=O)CCn1c(N2CC3(CCc4ccccc43)C(c3ccc(Cl)cc3)=N2)nn(Cc2ccc(Cl)cc2)c1=O (stereo in doubt) [Compound 133, 3-[3-[(1S)-3-(4-chlorophenyl)-1,2,3,5-tetrahydrospiro[indene-1,4-pyrazol]-1-yl]-1-[(4-chlorophenyl)methyl]-5-oxo-4,5-dihydro-1H-1,2,4-triazol-4-yl]propanamide] | 1000 to 5000 nM
NC(=O)CCn1c(N2CC3(CCc4ccccc43)C(c3ccc(Cl)cc3)=N2)nn(Cc2ccc(Cl)cc2)c1=O (stereo in doubt) [Compound 132, 3-[3-[(1R)-3-(4-chlorophenyl)-1,2,3,5-tetrahydrospiro[indene-1,4-pyrazol]-1-yl]-1-[(4-chlorophenyl)methyl]-5-oxo-4,5-dihydro-1H-1,2,4-triazol-4-yl]propanamide] | 1000 to 5000 nM
CN1CCN(Cc2ccc(Cn3nc(N4C[C@H](c5ccccc5)C(c5ccc(Cl)cc5)=N4)n(CC(N)=O)c3=O)cc2)CC1 [Compound 149] | > 5000 nM
NC(=O)Cn1c(N2C[C@@H](c3ccccc3)C(c3ccc(Cl)cc3)=N2)nn(Cc2ccc(Cl)cc2)c1=O [Compound 106, 2-[3-[(4R)-3-(4-chlorophenyl)-4-phenyl-4,5-dihydro-1H-pyrazol-1-yl]-1-[(4-chlorophenyl)methyl]-5-oxo-4,5-dihydro-1H-1,2,4-triazol-4-yl]acetamide] | 1000 to 5000 nM
Cn1c(N2CC(c3ccccc3)C(c3ccc(Cl)cc3)=N2)nn(Cc2ccc(Cl)cn2)c1=O (centres unmarked) [Compound 177] | < 100 nM
Cn1c(N2C[C@H](c3ccccc3)C(c3ccc(Cl)cc3)=N2)nn(Cc2ccc(Cl)cc2)c1=O [Compound 102] | 100 to 1000 nM

— US20230192657A1, “1,2,4-TRIAZOLINONE CB1 INHIBITORS” (Goldfinch Bio, Inc., priority 2020, published 2023)
